# Test results: patent publication US5945450A, “Naphthalene derivative” (Teijin Limited, priority 1994, dated 1999)
# pIC50: −log10 of the molar value. Where two headings read alike, the source gives them in different places.
# How the values were obtained:
# [1] = test system: IgG1; assay: In vivo inhibition of IgG1 production in TNP-KLH immunized mice; design: species or system BDF1 mice; conditions: 100 mg/kg/day subcutaneously, twice a day for 10 days, N=10
# Method: (§1) TNP-KLH (trinitrophenyl-keyhole-lymphet-hemocyanin) was prepared by the method as described in J. Immunol., 97:421-430, 1966 from KLH and trinitrobenzene sulfonic acid. A […] of TNP-KLH suspended in 0.2 ml of saline and 1 mg of aluminum hydroxide gel were injected into the peritoneal cavity of BDF1 mice (8 weeks old) for immunization. From the day of immunization onward, the compound of this invention listed in Table 5 was given subcutaneously to the same animal twice a day for 10 days (100 mg/kg/day, dissolved in 0.5% Tween 80 in saline, and N=10). To the control group, 0.5% Tween 80 in saline was given at the same time schedule (N=10). Ten days after immunization, blood was extracted from the heart, and the concentrations of IgE, IgG1 and IgM antibodies were determined by ELISA (Immunol. Lett., 23:251-256, 1990, and Eur. J. Immunol., 20:2499-2503, 1990). Inhibition (%) of the antibody production with respect to the control was calculated.
# [2] = test system: IgM; assay: In vivo inhibition of IgM production in TNP-KLH immunized mice; design: species or system BDF1 mice; conditions: 100 mg/kg/day subcutaneously, twice a day for 10 days, N=10
# Method: as §1
# [3] = test system: mast cells of the rat; assay: Inhibition of histamine release from rat mast cells; format: cell-based, rat (SD strain); conditions: Mast cell, read-out: Inhibiton of histamine release (%)
# Method: A 1 ml of anti-DNP-Ascaris (Didets) anti-serum (prepared as described in J. Immunol., 106:1002, 1971) was injected into the peritoneal cavity of 5 SD strain rats of 7 weeks old. Forty eight hours later, the animals were bled to death, and 20 ml of HBSS (Hanks balanced salt solution) was injected into their peritoneal cavity. After about 90 second massaging, the HBSS washing was recovered, and cells released into the peritoneal cavity were collected from the washing. The ascitic cells thus collected were washed once with 0.1% BSA/Tyrode-HEPES, and then resuspended in 0.1% BSA/Tyrode-HEPES to give a suspension with a density of 5×10^6 cells/ml. The cell suspension was incubated at 37° C. for 10 minutes in the presence/absence of a test substance, that is, the compound listed in Table 6.
# To the resulting mixture was added a histamine releasing agent (20 μg/ml of DNP-Ascaris (DNP-As) (Didets)+25 μg/ml of phosphatidylserine (PS) or 0.2 μg/ml of calcium ionophore A23187), and the reaction was allowed to proceed at 37° C. for 20 minutes. Then, the cell suspension was centrifuged to obtain supernatant. Histamine released in the supernatant was determined by the fluorescent method (J. Pharmacol. Exp. Ther. 127:182, 1959). Inhibitory effect (%) of a given compound of this invention on histamine release was calculated relative to the histamine release when the compound was not coexistent.
# [4] = test system: human basophils; assay: Inhibition of histamine release from human basophils; format: cell-based; design: dose or concentration left out as unconfirmed
# Method: To human heparinized peripheral blood was added 1/10 volume of 6% Dextran 500 in saline, and the mixture was allowed to stand at room temperature for 1 hour, to isolate a plasma layer containing leukocytes. The leukocytes were separated by centrifugation, washed with PIPE-A (119 mM NaCl, 5 mM KCl, 25 mM PIPES, 40 mM NaOH, 5.6 mM glucose, and 0.03% human serum albumin), and suspended in PIPES-ACM (PIPES A, 1 mM CaCl2 and 0.4 mM MgCl2) to give a cell suspension of a density of 4×10^6 cells /ml. To this cell suspension was added the compound of this invention listed in Table 7 as a test drug (0.1 M solution of the compound in DMSO was diluted with PIPES-ACM to give a […]), or the cell suspension was left untouched. After 30 second, calcium ionophore A23187 ([…]) was added. The reaction was allowed to proceed at 37 for 45 minutes. The resulting mixture was centrifuged to isolate a supernatant. Histamine release in the supernatant was determined by the fluorescent method. Inhibitory effect (%) of a given compound of this invention on histamine release was calculated relative to the histamine release when the compound was not coexistent(refer to Allergy, 37:313-321, 1988).
# [5] = test system: leukotrien B4 (LTB4) production; assay: Inhibition of leukotrien B4 (LTB4) production in RBL-1 basophils; format: cell-based; conditions: Rattus norvegicus; RBL-1 cells, calcium ionophore A23187
# Method: The basophils from rats of RBL-1 line (Dainippon Pharmaceutical Co.) cultured on DMEM (Dulbecco's modified Eagle medium) containing 10% FCS suspended in 10 mM HEPES-NaOH buffer (pH 7.4), 90 mM NaCl, 3.7 mM KCl, 0.9 mM CaCl2, 5.6mM glucose, and the compound of this invention listed in Table 8 as a test drug, to give a suspension of a density of 2×10^6 cells/ml. The suspension was allowed to stand at 37 for 5 minutes, and calcium ionophores A23187 were added thereto in such a manner that the concentration of […] was obtained in the end. The reaction was allowed to proceed at 37 for 10 minutes, and the supernatant was sampled for the ELISA assay (Cayman Chemical, Catalog No. 520111, and J. Immunol., 119:618-622, 1977) of leukotrien B4 (LTB4). IC50 of a given compound of this invention for inhibition of leukotrien production was calculated relative to the production of LTB4 when the compound was not coexistent.
# [6] = releasing agent DNP-As + PS, 10 μM
# [7] = releasing agent DNP-As + PS, 100 μM
# [8] = releasing agent calcium ionophore A23187, 10 μM
# [9] = releasing agent calcium ionophore A23187, 100 μM
Structure (SMILES),Inhibition of antibody production (%) IgG1 [1],Inhibition of antibody production (%) IgM [2],"inhibition at 10 µM [3, 6]","inhibition at 100 µM [3, 7]","inhibition at 10 µM [3, 8]","inhibition at 100 µM [3, 9]",Inhibition of histamine release (%) [4],pIC50 [5]
"O=C(Cc1ccc(Oc2ccc3ccccc3c2)cc1)Nc1ccccc1C(=O)O [Compound No. 1126, 2-(4-(2-naphtyloxy)phenylacetamide)benzoic acid]",46.8%,70.2%,25.4%,90.2%,54.2%,79.8%,55.8%,6.22
"O=C(Nc1ccccc1C(=O)O)c1ccc(Oc2ccc3ccccc3c2)cc1 [Compound No. 1104, 2-(4-(2-naphtyloxy)benzamide)benzoic Acid]",24.4%,56.1%,42.7%,84.2%,75.4%,78%,20.4%,6.68
